According to patent publication US20260055126A1, “SMALL MOLECULE COMPOUNDS WITH PHOSPHORYLATED ARYL STRUCTURES AND USE THEREOF” (HANGZHOU PHECDAMED CO., LTD., priority 2022, published 2026):

Legend:
Format in all cases: binding
Settings in all cases: 10 μM TEAD protein, 50 μM test compound
[1] = tested on: recombinant TEAD1 protein (194-411, Uniprot ID: P28347); assay: Thermal shift assay (protein melting point curve), TEAD1; set-up: key to the marks not given beside the values
Description: (§1) The ability of the compounds to increase the melting point of purified recombinant TEAD1/2/3/4 proteins is tested using a thermal shift assay. The strength of the compound's binding to the protein and the selectivity of the compound's binding to the four TEAD subtypes are evaluated by calculating the melting point shift ΔTm−° C. […] Based on the Δ Tm value, the ability of the compound to bind to the TEAD protein is divided into four levels: ++++, +++, ++, +.
(§2) Test method of protein melting point curve: 10 μL of the protein melting point curve experimental system (10 μM TEAD protein, 50 μM test compound, SYPRO® orange (55692, sigma)) is prepared in a 384-well fluorescence quantitative PCR plate according to the following system, and reacted at 4° C. in the dark for 20 minutes. On-machine reaction: ABI QuantStudio Dx fluorescence quantitative PCR instrument; program: from 25° C. to 80° C., increasing the temperature at a rate of 0.05° C./s, and reading the fluorescence channel signal of the corresponding wavelength of SYPRO® orange every second.

[2] = biological target: recombinant TEAD3 protein (218-435, Uniprot ID: Q99594) (Homo sapiens (Human), UniProt Q99594); assay: Thermal shift assay (protein melting point curve), TEAD3
Sequence of recombinant TEAD3 protein (218-435, Uniprot ID: Q99594) (Q99594 218-435): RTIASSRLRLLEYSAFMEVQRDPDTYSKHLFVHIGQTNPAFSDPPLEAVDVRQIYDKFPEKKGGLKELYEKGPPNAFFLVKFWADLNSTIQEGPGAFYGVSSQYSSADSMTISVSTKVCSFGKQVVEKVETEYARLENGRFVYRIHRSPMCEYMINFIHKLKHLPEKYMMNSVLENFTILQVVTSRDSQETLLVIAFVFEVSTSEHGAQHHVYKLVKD
Description: as §1, §2

[3] = biological target: recombinant TEAD4 protein (217-434, Uniprot ID: Q15561) (Homo sapiens (Human), UniProt Q15561); assay: Thermal shift assay (protein melting point curve), TEAD4
Sequence of recombinant TEAD4 protein (217-434, Uniprot ID: Q15561) (Q15561 217-434): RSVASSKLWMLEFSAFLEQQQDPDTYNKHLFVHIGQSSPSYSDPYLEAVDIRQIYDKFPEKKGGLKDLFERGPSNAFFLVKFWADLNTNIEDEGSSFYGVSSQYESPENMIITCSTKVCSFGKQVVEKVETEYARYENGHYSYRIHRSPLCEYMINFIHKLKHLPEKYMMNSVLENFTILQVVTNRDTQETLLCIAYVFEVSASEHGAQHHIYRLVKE
Description: as §1, §2

[4] = biological target: recombinant TEAD2 protein (218-447, Uniprot ID: Q15562) (Homo sapiens (Human), UniProt Q15562); assay: Thermal shift assay (protein melting point curve), TEAD2
Sequence of recombinant TEAD2 protein (218-447, Uniprot ID: Q15562) (Q15562 218-447): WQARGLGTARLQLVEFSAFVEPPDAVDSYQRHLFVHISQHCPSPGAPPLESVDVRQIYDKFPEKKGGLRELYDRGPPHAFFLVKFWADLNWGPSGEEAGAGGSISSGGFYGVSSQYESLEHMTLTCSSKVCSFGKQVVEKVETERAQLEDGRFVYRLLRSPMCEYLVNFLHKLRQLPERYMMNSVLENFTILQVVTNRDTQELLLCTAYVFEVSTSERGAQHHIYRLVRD
Description: as §1, §2

| Compound | Δ T m (TEAD3) [2] | Δ T m (TEAD4) [3] | Δ T m (TEAD2) [4] | Δ T m (TEAD1) [1] |
| --- | --- | --- | --- | --- |
| CP(C)(=O)c1ccc(Nc2ccc(C(F)(F)F)cc2)c(-c2nccc(OC(F)F)n2)c1 [Compound 65] | + | ++ | ++ | +++ |
| CP(C)(=O)c1ccc(NC23CCC(CC2)CC3)c(-c2nccc(OC3COC3)n2)c1 [Compound 38] | + | +++ | + | +++ |
| CP(C)(=O)c1ccc(NCc2cc(F)cc(F)c2)c(-c2nccc(OC3COC3)n2)c1 [Compound 62] | + | + | + | ++ |
| CP(C)(=O)c1ccc(NCc2cc(F)cc(F)c2)c(-c2ncccn2)c1 [Compound 44] | + | ++ | ++ | ++ |
| CP(C)(=O)c1ccc(Nc2ccc(C(F)(F)F)cc2)c(-c2cn(Cc3ccccn3)cn2)c1 [Compound 2] | ++ | ++ | + | +++ |
| CP(C)(=O)c1ccc(Nc2ccc(C(F)(F)F)cc2)c(-c2csc(OC3COC3)n2)c1 [Compound 71] | + | ++ | + | ++ |
| CP(C)(=O)c1ccc(Nc2cccc(C(F)(F)F)c2)c(-c2nccc(OC3COC3)n2)c1 [Compound 13] | + | + | + | +++ |
| CP(C)(=O)c1ccc(OCc2ccc(C(F)(F)F)cc2)c(-c2nccc(OC3COC3)n2)c1 [Compound 20] | ++ | ++ | ++ | +++ |
| CP(C)(=O)c1cnc(Nc2ccc(C(F)(F)F)cc2)c(-c2nccc(OC3COC3)n2)c1 [Compound 39] | + | ++ | + | ++++ |
| CP(C)(=O)c1ccc(NCC2CCC(C(F)(F)F)CC2)c(-c2ncccn2)c1 (stereo not shown) [Compound 46] | ++ | ++ | ++ | +++ |
| CP(C)(=O)c1ccc(Nc2ccc(C(F)(F)F)cc2)c(-c2cn(C3COC3)cn2)c1 [Compound 70] | + | ++ | ++ | ++ |
| CP(C)(=O)c1ccc(Nc2ccc(C(F)(F)F)cc2)c(-c2cnn(C3CCOCC3)c2)c1 [Compound 51] | ++ | ++ | ++ | ++ |
| CP(C)(=O)c1ccc(NCc2ccc(C(F)(F)F)cc2)c(-c2cnn(C3COC3)c2)c1 [Compound 50] | ++ | ++ | ++ | ++ |
| COCc1cccn(-c2cc(P(C)(C)=O)ccc2Nc2ccc(C(F)(F)F)cc2)c1=O [Compound 48] | + | + | + | ++ |
| CP(C)(=O)c1ccc(NCc2ccc(C(F)(F)F)cc2)c(-c2nccc(N3CCC(O)C3)n2)c1 (stereo not shown) [Compound 54] | + | ++ | + | ++ |
| CP(C)(=O)c1ccc(NCc2cccc(C(F)(F)F)c2)c(-c2nccc(OC3COC3)n2)c1 [Compound 52] | + | ++ | ++ | ++ |
| CP(C)(=O)c1ccc(Nc2ccc(C(F)(F)F)cc2)c(-c2ccn(C3CCOCC3)n2)c1 [Compound 25] | ++ | ++ | ++ | ++ |
| CP(C)(=O)c1ccc(Nc2ccc(C(F)(F)F)cc2)c(-c2cnn(C3COC3)c2)c1 [Compound 15] | ++ | +++ | ++ | +++ |
| CP(C)(=O)c1ccc(Nc2ccc(C(F)(F)F)cc2)c(-c2nccc(OC3COC3)c2C#N)c1 [Compound 36] | + | +++ | + | ++ |
| CP(C)(=O)c1ccc(Nc2ccc(C(F)(F)F)cc2)c(-c2ncn(C3CCOCC3)n2)c1 [Compound 34] | + | ++ | + | ++ |
| CP(C)(=O)c1ccc(Nc2ccc(C(F)(F)F)cc2)c(-n2cc(C3CCOCC3)cn2)c1 [Compound 33] | + | ++ | + | ++ |
| CP(C)(=O)c1ccc(Nc2ccc(C(F)(F)F)cc2)c(-c2nnc(CO)o2)c1 [Compound 11] | + | ++ | ++ | +++ |
| CP(C)(=O)c1ccc(Nc2ccc(C(F)(F)F)cc2)c(-c2nnn(Cc3ccccn3)n2)c1 [Compound 3] | + | ++ | + | +++ |

Second part, led by results:

| Δ T m (TEAD3) [2] | Δ T m (TEAD4) [3] | Δ T m (TEAD2) [4] | Compound | Δ T m (TEAD1) [1] |
| --- | --- | --- | --- | --- |
| ++ | +++ | +++ | CP(C)(=O)c1ccc(Nc2ccc(C(F)(F)F)cc2)c(-c2cn(C3COC3)nn2)c1 [Compound 41] | +++ |
| + | ++ | + | O=P1(c2ccc(Nc3ccc(C(F)(F)F)cc3)c(-c3nccc(OC4COC4)n3)c2)CCNCC1 [Compound 60] | +++ |
| + | +++ | +++ | Cn1cnc(-c2cc(P(C)(C)=O)ccc2NC2CCC(C(F)(F)F)CC2)c1 (stereo not shown) [Compound 63] | ++++ |
| ++ | ++ | ++ | CP(C)(=O)c1ccc(NC23CC(C(F)(F)F)(C2)C3)c(-c2nccc(OC3COC3)n2)c1 [Compound 37] | ++ |
| + | ++ | + | CP(C)(=O)c1ccc(NCc2ccc(C(F)(F)F)cc2)c(-c2ncn(C3CCOCC3)n2)c1 [Compound 55] | ++ |
| ++ | + | ++ | Cc1nnc(-c2cc(P(C)(C)=O)ccc2NCc2ccc(C(F)(F)F)cc2)o1 [Compound 4] | +++ |
| + | + | + | CP(C)(=O)c1ccc(NCc2ccc(C(F)(F)F)cc2)c(-n2cc(C3CCOCC3)cn2)c1 [Compound 58] | ++ |
| ++ | ++ | + | CP(C)(=O)c1ccc(NCc2ccc(C(F)(F)F)cc2)c(-c2cn(C3COC3)cn2)c1 [Compound 47] | +++ |
| + | + | ++ | CP(C)(=O)c1ccc(NC2CCc3cc(C(F)(F)F)ccc32)c(-c2ncccn2)c1 (stereo not shown) [Compound 42] | ++ |
| ++ | ++ | + | Cc1nc(-c2cc(P(C)(C)=O)ccc2NCc2cccc(C(F)(F)F)c2)no1 [Compound 49] | +++ |
| ++ | ++ | + | Cc1nnc(-c2cc(P(C)(C)=O)ccc2Nc2ccc(C(F)(F)F)cc2)o1 [Compound 69] | ++ |
| + | + | + | CP(C)(=O)c1ccc(Nc2ccc(C(F)(F)F)cc2)c(-c2nnc(COC3COC3)o2)c1 [Compound 57] | ++ |
| + | ++++ | ++ | CP(C)(=O)c1ccc(Nc2ccc(Br)cc2)c(-c2nccc(OC3COC3)n2)c1 [Compound 26] | ++++ |
| + | + | + | CC1OCCC1S(=O)(=O)c1csc(-c2cc(P(C)(C)=O)ccc2Nc2ccc(C(F)(F)F)cc2)n1 (stereo not shown) [Compound 23] | ++ |
| + | + | + | COCc1cccn(-c2cc(P(C)(C)=O)ccc2NCc2ccc(C(F)(F)F)cc2)c1=O [Compound 59] | ++ |
| ++ | +++ | ++ | CP(C)(=O)c1ccc(Nc2ccc(C(F)(F)F)cc2)c(-c2cnn(CC3COC3)c2)c1 [Compound 16] | +++ |
| + | +++ | ++ | CP(C)(=O)c1ccc(Nc2cccc(OC(F)(F)F)c2)c(-c2nccc(OC3COC3)n2)c1 [Compound 67] | +++ |
